According to patent publication US20230276803A1, “A PESTICIDALLY ACTIVE MIXTURE COMPRISING THIETANYLOXY COMPOUND, OXIDES OR SALTS THEREOF” (PI INDUSTRIES LTD., priority 2020, published 2023):
Read-outs that look alike come from different tables or passages of the source.

How the values were obtained:
Assay type in all cases: in vivo
Plutella xylostella = assay: Leaf dip method (cabbage) against Plutella xylostella (Example C); conditions: 72 h
Excerpt: (§1) In which E represents the expected percentage of inhibition of the pests for the combination of two insecticides or one insecticide and one fungicide at defined doses (for example equal to x and y respectively), x is the percentage of inhibition observed for the pest/disease by the compound (1) at a given dose (equal to x), y is the percentage of inhibition observed for the pest/disease by the compound (2) or (3) at a defined dose (equal to y). When the percentage of inhibition observed for the combination is greater than E, there is a synergistic effect.
The leaf dip method was used, wherein the required quantity of the compound or respective compound combinations were weighed and dissolved in a test solution prepared in tubes. The tubes were put on a vortex at 2000 rpm for 90 min for proper mixing and then diluted with a 0.01% Triton-X solution to the desired test concentration. Cabbage leaves were dipped into the solution for 10 seconds, shade dried for 20 min and then transferred to single cells of bioassay trays. A single second instar larva was released into each cell and the tray was covered with a lid. The bio-assay trays were kept under laboratory conditions at a temperature of 25° C. and relative humidity of 70%. Observations on dead, moribund and live larvae were recorded 72 h after the release. Percent mortality was calculated by combining dead and moribund larvae and comparing the result with the one of the untreated control. The results are shown for compound of formula (I-1) in Table C.

Helicoverpa armigera = assay: Diet incorporation method against Helicoverpa armigera (Example A); conditions: 96 h
Excerpt: as §1
The diet incorporation method was used, in which semi-synthetic diet was incorporated into the test solutions consisting either of the single compounds or respective compound combinations, when the temperature was approximately 50° C. in the bio-assay containers, then stirred thoroughly for proper mixing and allowed to cool for 30 min. The solidified diet was cut into equal pieces, and then each piece was transferred into one cell of a bio-assay tray. A single starved third instar larva was released into each of these cells of the bio-assay trays and the tray was covered with a lid. The bio-assay trays were kept under laboratory conditions at a temperature of 25° C. and relative humidity of 70%. Observations on dead, moribund and live larvae were recorded 96 h after the release of the larvae. Percent mortality was calculated by combining dead and moribund larvae and comparing the result to the one of the untreated control. The results are shown for the compound of formula (I-1) in Table A.

Spodoptera litura = assay: Diet incorporation method against Spodoptera litura (Example B); conditions: 96 h; for pest or weed control at 10 ppm: read-out: Observed Efficacy (%), 10 ppm
Excerpt: as §1
The diet incorporation method was used, in which semi-synthetic diet was incorporated into the test solution consisting either of the single compound or respective compound combinations, when the temperature was approximately 50° C. in the bioassay containers, then stirred thoroughly for proper mixing and allowed to cool for 30 min. The solidified diet was cut into equal pieces, and then each piece was transferred into one cell of the bio-assay trays. A single starved third instar larva was released into each of these cells of the bio-assay trays and the tray was covered with a lid. The bio-assay trays were kept under laboratory conditions at a temperature of 25° C. and relative humidity of 70%. Observations on dead, moribund and live larvae were recorded 96 h after the release. Percent mortality was calculated by combining dead and moribund larvae and comparing the result with the one of the untreated control. The results are shown for the compound of formula (I-1) in Table B.

Phakopsora pachyrhizi = assay: Preventive glasshouse test against Phakopsora pachyrhizi in soybean (Example H); conditions: preventive spray
Excerpt: as §1
The single compounds or the respective compound combinations were dissolved in 2% dimethyl sulfoxide/acetone and then mixed with water containing an emulsifier to a calibrated spray volume of 50 ml. The test solutions were poured into spray bottles for further applications.
To test the preventive activity of compounds, healthy young Soybean plants, raised in the greenhouse, were sprayed with the active compound preparation at the stated application rates inside the spray cabinets using hollow cone nozzles. One day after treatment, the plants were inoculated with a suspension containing 2×10^5 Phakopsora pachyrhizi conidia. The inoculated plants were then kept in a greenhouse chamber at a temperature of 22-24° C. and 80-90% relative humidity for disease expression.
A visual assessment of the performance of the single compounds and respective compound combinations was carried out by rating the disease severity (0-100% scale) on treated plants 3, 7, 10 and 15 days after application. Efficacy (% control) of the compounds was calculated by comparing the disease rating in the treatment with the one of the untreated control. The compounds were also assessed for their plant compatibility by recording symptoms like necrosis, chlorosis and stunting. The results have been described for the compound of formula (I-1) in Table H.

[1] = tested on: Parastagonospora nodorum/Septoria nodorum/Stagnospora nodorum; assay: Preventive glasshouse test against Septoria nodorum in wheat (Example J); conditions: preventive spray
Excerpt: as §1
(§2) The single compounds or respective compound combinations were dissolved in 2% dimethyl sulfoxide/acetone and then mixed with water containing emulsifier to a calibrated spray volume of 50 mL. The test solutions were poured into spray bottles for further applications.
[…] One day after treatment, the plants were inoculated with a spore suspension containing 2.8×10^6 Stagnospora nodorum inoculum.
The inoculated plants were then kept in a greenhouse chamber at 22-25° C. temperature and 90-100% relative humidity for disease expression.
(§3) A visual assessment of the performance of the single compounds or compound combinations was carried out by rating the disease severity (0-100% scale) on treated plants 3, 7, 10 and 15 days after application. Efficacy (% control) of the single compounds and mixtures was calculated by comparing the disease rating in the treatment with the one of the untreated control. The compounds were also assessed for their plant compatibility by recording symptoms like necrosis, chlorosis and stunting. The results have been described for the compound of formula (I-1) in Table J.

Alternaria solani = assay: Preventive glasshouse test against Alternaria solani in tomato (Example G); conditions: 100 ppm, preventive spray
Excerpt: as §1, §2
To test the preventive activity, healthy young tomato plants, raised in the greenhouse, were sprayed with the active compound preparation at the stated application rates inside the spray cabinets using hollow cone nozzles. One day after treatment, the plants were inoculated with a spore suspension containing 0.24×10^6 Alternaria solani inoculum and 2% Malt. The inoculated plants were then kept in a greenhouse chamber at a temperature of 22-24° C. and 90-95% relative humidity for disease expression.
as §3, with “G.” for “J.”

Erysiphe cichoracearum = assay: Preventive glasshouse test against Erysiphe cichoracearum in cucumber (Example K); conditions: 50 ppm, preventive spray
Excerpt: as §1
The single compounds or the respective compound combinations were dissolved in 2% dimethyl sulfoxide/acetone and then mixed with water containing emulsifier to a calibrated spray volume of 50 mL. The test solutions were poured into spray bottles for further applications. […]
A visual assessment of the performance of the compounds and the respective compound combinations was carried out by rating the disease severity (0-100% scale) on treated plants 3, 7, 10 and 15 days after application. Efficacy (% control) of the single compounds or compound combinations was calculated by comparing the disease rating in the treatment with the one of the untreated control. The compounds were also assessed for their plant compatibility by recording symptoms like necrosis, chlorosis and stunting. […]

[2] = Plutella xylostella, foliar, read-out: Observed Efficacy (%)
[3] = Helicoverpa armigera, read-out: Observed Efficacy (%)

With `N#Cc1ccc(CC(=NNC(=O)Nc2ccc(OC(F)(F)F)cc2)c2cccc(C(F)(F)F)c2)cc1` (mixture of isomers) [Metaflumizone, metaflumizone] the “Observed Efficacy (%)” value (Plutella xylostella; 0.001 ppm) was 12.5%.

`Cc1c(COC(=O)[C@@H]2[C@H](/C=C(\Cl)C(F)(F)F)C2(C)C)cccc1-c1ccccc1` (racemic) [Bifenthrin, bifenthrin] showed a pest or weed control at 1 ppm (Plutella xylostella; [2]) of 25%, a pest or weed control at 20 ppm (Helicoverpa armigera; Helicoverpa armigera, 20 ppm, read-out: Observed Efficacy (%)) of 75% and a pest or weed control at 10 ppm (Spodoptera litura) of 12.5%.

With `CO/C=C(/C(=O)OC)c1ccccc1Oc1cc(Oc2ccccc2C#N)ncn1` [Azoxystrobin, azoxystrobin] the “Observed Efficacy (%)” value (Phakopsora pachyrhizi; 0.1 ppm) was 39%, the “Observed Efficacy (%)” value ([1]; 0.05 ppm) was 12% and the “Observed Efficacy (%)” value ([1]; 0.1 ppm) was 24%.

With `CCOCn1c(-c2ccc(Cl)cc2)c(C#N)c(Br)c1C(F)(F)F` [Chlorfenapyr, chlorfenapyr] the pest or weed control at 0.15 ppm (Plutella xylostella; Plutella xylostella, foliar, 0.15 ppm, read-out: Observed Efficacy (%)) was 62.5% and the pest or weed control at 0.2 ppm (Plutella xylostella; Plutella xylostella, foliar, 0.2 ppm, read-out: Observed Efficacy (%)) was 75%.

Compound `CN/C(=N\[N+](=O)[O-])NCc1cnc(Cl)s1` [Clothianidin, clothianidin] has a pest or weed control at 0.1 ppm (Plutella xylostella; [2]) of 0% and a pest or weed control at 10 ppm (Spodoptera litura) of 0%.

Compound `N#Cc1nn(-c2c(Cl)cc(C(F)(F)F)cc2Cl)c(N)c1[S+]([O-])C(F)(F)F` (stereo not shown) [Fipronil, fipronil] has a pest or weed control at 0.005 ppm (Plutella xylostella; Plutella xylostella, foliar, 0.005 ppm, read-out: Observed Efficacy (%)) of 50%.

In the case of `CCc1nc2cc(C)c(Oc3ccc(OC(F)(F)F)cc3)cc2c(OC(=O)OC)c1C` [Flometoquin, flometoquin], the “Observed Efficacy (%)” value (Plutella xylostella; 0.001 ppm) is reported as 0% and the “Observed Efficacy (%)” value (Plutella xylostella; 0.005 ppm) is reported as 62.5%.

With `N#Cc1c[nH]cc1-c1cccc2c1OC(F)(F)O2` [Fludioxonil, fludioxonil] the pest or weed control at 100 ppm (Helicoverpa armigera; Helicoverpa armigera, 100 ppm, read-out: Observed Efficacy (%)) was 0%.

In the case of `CON=CNC(=O)c1ccc(C2=NOC(c3cc(Cl)cc(Cl)c3)(C(F)(F)F)C2)cc1C` (stereo not shown) [Fluxametamide, fluxametamide], the “Observed Efficacy (%)” value (Helicoverpa armigera; 0.13 ppm) is reported as 12.5% and the “Observed Efficacy (%)” value (Helicoverpa armigera; 0.28 ppm) is reported as 12.5%.

For `Cn1cc(C(=O)Nc2ccccc2-c2cc(F)c(F)c(F)c2)c(C(F)F)n1` [Fluxapyroxad, fluxapyroxad], the “Observed Efficacy (%)” value (Phakopsora pachyrhizi; 0.05 ppm) was 41%.

In the case of `O=[N+]([O-])NC1=NCCN1Cc1ccc(Cl)nc1` [Imidacloprid, imidacloprid], the pest or weed control at 0.1 ppm (Plutella xylostella; [2]) is reported as 0% and the pest or weed control at 50 ppm (Spodoptera litura; read-out: Observed Efficacy (%), 50 ppm) is reported as 25%.

In the case of `COCC(=O)N(c1c(C)cccc1C)C(C)C(=O)OC` (stereo not shown) [Metalaxyl, metalaxyl], the “Observed Efficacy (%)” value (Alternaria solani) is reported as 17% and the pest or weed control at 100 ppm (Spodoptera litura; read-out: Observed Efficacy (%), 100 ppm) is reported as 0%.

In the case of `CCS(=O)(=O)c1cccnc1-c1nc2cc(S(=O)(=O)C(F)(F)F)ccc2o1` [Oxazosulfyl, 2-[3-(ethanesulfonyl)pyridin-2-yl]-5-[trifluoro(methanesulfonyl)]-1,3-benzoxazole], the pest or weed control at 0.1 ppm (Plutella xylostella; [2]) is reported as 0% and the pest or weed control at 100 ppm (Spodoptera litura; 100 ppm, read-out: Observed Efficacy (%)) is reported as 0%.

Work on `C=CCOC1=NS(=O)(=O)c2ccccc21` [Probenazole, probenazole] yielded a pest or weed control at 200 ppm (Helicoverpa armigera; [3]) of 12.5%.

`CC1=NNC(=O)N(/N=C/c2cccnc2)C1` [Pymetrozine, pymetrozine] showed a pest or weed control at 0.01 ppm (Plutella xylostella; Plutella xylostella, foliar, 0.01 ppm, read-out: Observed Efficacy (%)) of 0% and a pest or weed control at 0.05 ppm (Plutella xylostella; [2]) of 0%.

For `COC(=O)N(OC)c1ccccc1COc1ccn(-c2ccc(Cl)cc2)n1` [Pyraclostrobin, pyraclostrobin], the pest or weed control at 200 ppm (Helicoverpa armigera; [3]) was 0%, the pest or weed control at 500 ppm (Helicoverpa armigera; Helicoverpa armigera, 500 ppm, read-out: Observed Efficacy (%)) was 0% and the pest or weed control at 200 ppm (Spodoptera litura; read-out: Observed Efficacy (%), 200 ppm) was 0%. For the same compound, the pest or weed control at 500 ppm (Spodoptera litura; read-out: Observed Efficacy (%), 500 ppm) was 0%.

In the case of `FC(F)(F)c1ccc(OCCCOc2c(Cl)cc(OCC=C(Cl)Cl)cc2Cl)nc1` [Pyridalyl, pyridalyl], the pest or weed control at 0.002 ppm (Plutella xylostella; Plutella xylostella, foliar, 0.002 ppm, read-out: Observed Efficacy (%)) is reported as 50%.

For `CC(COc1ccc(Oc2ccccc2)cc1)Oc1ccccn1` (stereo not shown) [Pyriproxyfen], the pest or weed control at 0.05 ppm (Plutella xylostella; [2]) was 12.5%.

`CN1COCN(Cc2cnc(Cl)s2)/C1=N\[N+](=O)[O-]` [Thiamethoxam, thiamethoxam] showed a pest or weed control at 1 ppm (Plutella xylostella; [2]) of 12.5%.

`COC(=O)NC(=S)Nc1ccccc1NC(=S)NC(=O)OC` [Thiophanate-methyl, thiophanate-methyl] was tested, and the “Observed Efficacy (%)” value (Erysiphe cichoracearum) was 29%.

For `CCN(C(=O)CCSCCC(F)(F)F)c1cn(-c2cccnc2)nc1Cl` [Tyclopyrazoflor], the “Observed Efficacy (%)” value (Helicoverpa armigera; 100 ppm) was 12.5%.

spinetoram was tested, and the “Observed Efficacy (%)” value (Helicoverpa armigera; 2.5 ppm) was 87.5%.
